Our source for the inhibition values is US20090215895A1, “Therapeutic and carrier molecules” (PEPLIN BIOLIPIDS PTY LTD, priority 2004, published 2009).

Each structure is given as a SMILES string.

The experiment deals with IκBα. Briefly: TNF-induced degradation of IκBα in HUVEC (Western blot). The format is cell-based. To be noted: Homo sapiens, 20 μmol/l, 30 min pre-treatment, TNF 10 min. The protocol:
FIG. 17 is a representation showing (A) the effect of MP3 (β-oxa 23:4n-6) and DHA on TNF-induced degradation of IκBα in HUVEC. Cells were pre-treated with the fatty acids (20 μmol/l) for 30 min and then stimulated with TNF (125 U/ml) for 10 min. After cell lysis the proteins were analyzed by Western blots using anti-IκBα antibodies. (B) The effects of β-oxa-23:4n-6 on TNF-induced activation of transcriptional factor, NFκB in HUVEC. Cells were pre-treated with β-oxa-23:4n-6 (20 μmol/l) for 30 min and then stimulated with TNF for 2 hr. After cell lysis, nuclear fractions were prepared, nuclear proteins separated by SDS PAGE (12% w/v gel), transferred to nitrocellulose and probed with an anti-NFκB p65 antibody (Santa Cruz). […] (C) The effect of β-oxa 23:4n-6 on TNF-stimulated activation of IKK. Cells were pre-treated with β-oxa 23:4n-6 (20 μmol/l) for 30 min and then stimulated with TNF for 5 min. After cell lysis IKK was immunoprecipitated with anti-IKKα antibody and kinase activity determined. […]
Proteins (50 μg) were separated by SDS PAGE (12% w/v gel), transferred to nitrocellulose and probed with an anti-NFκB p65 or anti-IκBα antibody (Santa Cruz Biotech, Santa Cruz, Calif.). Immunocomplexes were detected by enhanced chemiluminescence (Hii et al, 1998 supra).
(In general: A western blot detects proteins with antibodies after separation by electrophoresis.)

For orientation: inhibition means the drop in the measured response relative to a control, in per cent. Take `CCCCC/C=C\C/C=C\C/C=C\C/C=C\CCCCOCC(=O)O` [MP3, β-oxa-23:4n-6]: the inhibition at 20 µM was above 92%.
